In patent US20090170846A1, “INHIBITORS OF THE HIV INTEGRASE ENZYME” (Pfizer Inc, priority 2005, published 2009):
Read-outs that look alike come from different tables or passages of the source.

Columns and labels:
[1] = target: T1, Full-length wild type HIV-1 integrase (SF1) (Human immunodeficiency virus type 1 group M subtype B, UniProt P04585); test: Integrase strand-transfer scintillation proximity assay; assay type: biochemical; settings: integrase strand-transfer SPA; read-out: IC50
T1 construct: made in house; host or cells: E. coli BL21 (DE3)
Excerpt: Integrase Strand-Transfer Scintillation Proximity Assay
Oligonucleotides: Oligonucleotide #1-5′-(biotin)[…]-3′ (SEQ ID NO: 1) and oligonucleotide #2-5′-[…]-3′ (SEQ ID NO: 2), were synthesized by TriLink BioTechnologies, Inc. (San Diego, Calif.). The annealed product represents preprocessed viral ds-DNA derived from the LTR U5 sequence of the viral genome. A ds-DNA control to test for non-specific interactions was made using a 3′ di-deoxy derivative of oligonucleotide #1 annealed to oligonucleotide #2. The CA overhang at the 5′ end of the non-biotinylated strand of the ds-DNA was created artificially by using a complimentary DNA oligonucleotide shortened by 2 base pairs. This configuration eliminates the requisite 3′ processing step of the integrase enzyme prior to the strand-transfer mechanism.
Host ds-DNA was prepared as an unlabeled and [^3H]-thymidine labeled product from annealed oligonucleotide #3-5-[…]-3′ (SEQ ID NO: 3), and oligonucleotide #4-1-5′-[…]-3′ (SEQ ID NO: 4), both synthesized by TriLink BioTechnologies, Inc. (San Diego, Calif.). The annealed product had overhanging 3′ ends of poly(dA). Host DNA was custom radiolabeled by PerkinElmer Life Sciences Inc. (Boston, Mass.) using an enzymatic method with a 12/1 ratio of [methyl-^3H]dTTP/cold ds-DNA to yield 5′-blunt end ds-DNA with a specific activity of >900 Ci/mmol. The radiolabeled product was purified using a NENSORB cartridge and stored in stabilized aqueous solution (PerkinElmer). The final radiolabeled product had six [^3H]-thymidine nucleotides at both 5′ ends of the host ds-DNA.
Reagents: Streptavidin-coated polyvinyltoluene (PVT) SPA beads were purchased from Amersham Biosciences (Piscataway, N.J.). Cesium chloride was purchased from Shelton Scientific, Inc. (Shelton, Conn.). White, polystyrene, flat-bottom, non-binding surface, 96-well plates were purchased from Corning. All other buffer components were purchased from Sigma (St. Louis, Mo.) unless otherwise indicated.
Enzyme Construction Full-length wild type HIV-1 integrase (SF1) sequence (amino acids 1-289) was constructed in a pET24a vector (Novagen, Madison, Wis.). The construct was confirmed through DNA sequencing.
Enzyme Purification Full length wild-type HIV Integrase was expressed in E. coli BL21 (DE3) cells and induced with 1 mM isopropyl-1 thio-β-D-galactopyranoside (IPTG) when cells reached an optical density between 0.8-1.0 at 600 nm. Cells were lysed by microfluidation in 50 mM HEPES pH 7.0, 75 mM NaCl, 5 mM DTT, 1 mM 4-(2-Aminoethyl)benzenesulfonylfluoride HCl (AEBSF). Lysate was then centrifuged 20 minutes at 11 k rpm in GSA rotor in Sorvall RC-5B at 4° C. Supernant was discarded and pellet resuspended in 50 mM HEPES pH 7.0, 750 mM NaCl, 5 mM DTT, 1 mM AEBSF and homogenized in a 40 mL Dounce homogenizer for 20 minutes on ice. Homogenate was then centrifuged 20 minutes at 11 k rpm in SS34 rotor in Sorvall RC-5B at 4° C. Supernant was discarded and pellet resuspended in 50 mM HEPES pH 7.0, 750 mM NaCl, 25 mM CHAPS, 5 mM DTT, 1 mM AEBSF. Preparation was then centrifuged 20 minutes at 11 k rpm in SS34 rotor in Sorvall RC-5B at 4° C.
Supernant was then diluted 1:1 with 50 mM HEPES pH 7.0, 25 mM CHAPS, 1 mM DTT, 1 mM AEBSF and loaded onto a Q-Sepharose column pre-equilibrated with 50 mM HEPES, pH 7.0, 375 mM NaCl, 25 mM CHAPS, 1 mM DTT, 1 mM AEBSF. The flow through peak was collected and NaCl diluted to 0.1 M with 50 mM HEPES pH 7.0, 25 mM CHAPS, 1 mM DTT, 0.5 mM AEBSF and loaded onto a SP-Sepharose column pre-equilibrated with 50 mM HEPES pH 7.0, 100 mM NaCl, 25 mM CHAPS, 1 mM DTT, 0.5 mM AEBSF. After washing the column with the equilibration buffer, a 100 to 400 mM NaCl gradient was run. The eluted integrase was concentrated and run on a S-300 gel diffusion column using 50 mM HEPES pH 7.0, 500 mM NaCl, 25 mM CHAPS, 1 mM DTT, 0.5 mM AEBSF. The peak from this column was concentrated to 0.76 mg/mL and stored at −70° C. and later used for strand transfer assays. […]

[2] = tested on: RF strain of HIV-1 in CEM-SS cells; test: HIV-1 cell protection assay (XTT dye reduction); assay type: cell-based
Experimental: HIV-1 Cell Protection Assay
The antiviral activities of potential modulator compounds (test compounds) were determined in HIV-1 cell protection assays using the RF strain of HIV-1, CEM-SS cells, and the XTT dye reduction method (Weislow, O, S. et al., J. Natl. Cancer Inst 81: 577-586 (1989)). Subject cells were infected with HIV-1 RF virus at an moi of to affect about a 90% kill (for example, an moi in the range of from about 0.025 to about 0.819) or mock infected with medium only and added at 2×10^4 cells per well, with the addition of approximately 200 μL of medium, into 96 well plates containing half-log dilutions of test compounds. Six days later, 50 μl of XTT solution (1 mg/ml XTT tetrazolium and 20 nM phenazine methosulfate) were added to the wells and the plates were reincubated for four hours. Viability, as determined by the amount of XTT formazan produced, was quantified spectrophotometrically by absorbance at 450 nm.
Data from CPE assays were expressed as the percent of formazan produced in compound-treated cells compared to formazan produced in wells of uninfected, compound-free cells. The fifty percent effective concentration (EC50) was calculated as the concentration of compound that affected an increase in the percentage of formazan production in infected, compound-treated cells to 50% of that produced by uninfected, compound-free cells. The 50% cytotoxicity concentration (CC50) was calculated as the concentration of compound that decreased the percentage of formazan produced in uninfected, compound-treated cells to 50% of that produced in uninfected, compound-free cells. The therapeutic index was calculated by dividing the cytotoxicity (CC50) by the antiviral activity (EC50).

[3] = Human immunodeficiency virus 1, CEM-SS, 144 h
[4] = Human immunodeficiency virus 1, 144 h, HIV-1 RF, CEM-SS cells, XTT, six days, read-out: EC50

In the case of `CONC(=O)c1cc2c(C(=O)NCc3cnn(C)c3C)cn(Cc3ccc(F)cc3)c2cn1` [Example 11, N~3~-[(1,5-dimethyl-1H-pyrazol-4-yl)methyl]-1-(4-fluorobenzyl)-N~5~- methoxy-1H-pyrrolo[2,3-c]pyridine-3,5-dicarboxamide], the IC50 [1] is reported as 530 nM and the EC50 [2, 3] is reported as 67 nM.
`CONC(=O)c1cc2c(C(=O)N3CCC(N(C)C)C3)cn(Cc3ccc(F)cc3)c2cn1` (stereo not shown) [Example 12, 3-{[3-(dimethylamino)pyrrolidin-1-yl]carbonyl)-1-(4-fluorobenzyl)-N-methoxy-1H-pyrrolo[2,3-c]pyridine-5-carboxamide] showed an IC50 [1] of 801 nM and an EC50 [2, 3] of 140 nM.
Work on `CONC(=O)c1cc2c(C(=O)N3CCCC(CO)C3)cn(Cc3ccc(F)cc3)c2cn1` (stereo not shown) [Example 13, 1-(4-fluorobenzyi)-3-{[3-(hydroxymethyl)piperidin-1-yl]carbonyl}-N-methoxy-1H-pyrrolo[2,3-c]pyridine-5-carboxamide] yielded an IC50 [1] of 374 nM and an EC50 [2, 3] of 66 nM.
`CN(O)C(=O)c1cc2c(C(=O)NCC34CCCN3CCC4)cn(Cc3ccc(F)cc3)c2cn1` [Example 14, 1-(4-fluorobenzyl)-N~5~- hydroxy-N~5~-methyl-N~3~-(tetrahydro-1H-pyrrolizin-7a(5H)-ylmethyl)-1H-pyrrolo[2,3-c]pyridine-3,5-dicarboxamide] gave an IC50 [1] of 2600 nM and an EC50 [2, 3] of 5400 nM.
Compound `CONC(=O)c1cc2c(C(=O)NC(CC(=O)NC3CC3)C3CC3)cn(Cc3ccc(F)cc3)c2cn1` (stereo not shown) [Example 15, N~3~-[1-cyclopropyl-3-(cyclopropylamino)-3-oxopropyl]-1-(4-fluorobenzyl)-N~5~- methoxy-1H-pyrrolo[2,3-c]pyridine-3,5-dicarboxamide] has an IC50 [1] of 300 nM and an EC50 [2, 3] of 120 nM.
Compound `CN(O)C(=O)c1cc2c(C(=O)NCCCN3CCCC3=O)cn(Cc3ccc(F)cc3)c2cn1` [Example 16, 1-(4-fluorobenzyl)-N~5~- hydroxy-N~5~-methyl-N~3~-[3-(2-oxopyrrolidin-1-yl)propyl]-1H-pyrrolo[2,3-c]pyridine-3,5-dicarboxamide] has an IC50 [1] of 211 nM and an EC50 [2, 3] of 180 nM.
In the case of `Cc1c(CNC(=O)c2cn(Cc3ccc(F)cc3)c3cnc(C(=O)N(C)O)cc23)cnn1C` [Example 17, N~3~-[(1,5-dimethyl-1H-pyrazol-4-yl)methyl]-1-(4-fluorobenzyl)-N~5~- hydroxy-N~5~-methyl-1H-pyrrolo[2,3-c]pyridine-3,5-dicarboxamide], the IC50 [1] is reported as 168 nM and the EC50 [2, 3] is reported as 110 nM.
In the case of `CN(O)C(=O)c1cc2c(C(=O)NC(CC(=O)NC3CC3)C3CC3)cn(Cc3ccc(F)cc3)c2cn1` (stereo not shown) [Example 18, N~3~-[1-cyclopropyl-3-(cyclopropylamino)-3-oxopropyl]-1-(4-fluorobenzyl)-N~5~- hydroxy-N~5~-methyl-1H-pyrrolo[2,3-c]pyridine-3,5-dicarboxamide], the IC50 [1] is reported as 230 nM and the EC50 [2, 3] is reported as 460 nM.
`O=C(NO)c1cc2c(NS(=O)(=O)Cc3ccccc3)cn(Cc3ccc(F)cc3)c2cn1` [Example 19, 3-[(benzylsulfonyl)amino]-1-(4-fluorobenzyl)-N-hydroxy-1H-pyrrolo[2,3-c]pyridine-5-carboxamide] was tested, and the IC50 [1] was 105 nM and the EC50 [2, 4] was 18 nM.
With `O=C(NO)c1cc2c(NS(=O)(=O)c3ccc4c(c3)CNCC4)cn(Cc3ccc(F)cc3)c2cn1` [Example 20, 1-(4-fluorobenzyl)-N-hydroxy-3-[(1,2,3,4-tetrahydroisoquinolin-7-ylsulfonyl)amino]-1H-pyrrolo[2,3-c]pyridine-5-carboxamide] the IC50 [1] was 370 nM and the EC50 [2, 4] was 580 nM.
`O=C(NO)c1cc2c(NS(=O)(=O)c3ccc(Cl)s3)cn(Cc3ccc(F)cc3)c2cn1` [Example 21, 3-{[(5-chloro-2-thienyl)sulfonyl]amino}-1-(4-fluorobenzyl)-N-hydroxy-1H-pyrrolo[2,3-c]pyridine-5-carboxamide] showed an IC50 [1] of 102 nM and an EC50 [2, 4] of 71 nM.
`CN(O)C(=O)c1cc2c(C(=O)N3CCC[C@H]3CO)cn(Cc3ccc(F)cc3)c2cn1` [Example 22, 1-(4-fluorobenzyl)-N-hydroxy-3-{[(2S)-2-(hydroxymethyl)pyrrolidin-1-yl]carbonyl}-N-methyl-1H-pyrrolo[2,3-c]pyridine-5-carboxamide] showed an IC50 [1] of 320 nM and an EC50 [2, 3] of 170 nM.
Work on `O=C(NO)c1cc2c(C(=O)N3CCC[C@H]3CO)cn(Cc3ccc(F)cc3)c2cn1` [Example 23, 1-(4-fluorobenzyl)-N-hydroxy-3-{[(2S)-2-(hydroxymethyl)pyrrolidin-1-yl]carbonyl}-1H-pyrrolo[2,3-c]pyridine-5-carboxamide] yielded an IC50 [1] of 75 nM and an EC50 [2, 3] of 57 nM.
Work on `O=C(CC(NC(=O)c1cn(Cc2ccc(F)cc2)c2cnc(C(=O)NO)cc12)C1CC1)NC1CC1` (stereo not shown) [Example 24, N~3~-[1-cyclopropyl-3-(cyclopropylamino)-3-oxopropyl]-1-(4-fluorobenzyl)-N~5~- hydroxy-1H-pyrrolo[2,3-c]pyridine-3,5-dicarboxamide] yielded an IC50 [1] of 16 nM and an EC50 [2, 3] of 380 nM.
Work on `O=C(NO)c1cc2c(C(=O)NCC34CCCN3CCC4)cn(Cc3ccc(F)cc3)c2cn1` [Example 25, 1-(4-fluorobenzyl)-N~5~- hydroxy-N~3~-(tetrahydro-1H-pyrrolizin-7a(5H)-ylmethyl)-1H-pyrrolo[2,3-c]pyridine-3,5-dicarboxamide] yielded an IC50 [1] of 152 nM and an EC50 [2, 3] of 250 nM.
With `CN(C)C1CCN(C(=O)c2cn(Cc3ccc(F)cc3)c3cnc(C(=O)NO)cc23)C1` (stereo not shown) [Example 26, 3-{[3-(dimethylamino)pyrrolidin-1-yl]carbonyl}-1-(4-fluorobenzyl)-N-hydroxy-1H-pyrrolo[2,3-c]pyridine-5-carboxamide] the IC50 [1] was 158 nM and the EC50 [2, 3] was 90 nM.
With `O=C(NO)c1cc2c(C(=O)NCCN3CCOCC3)cn(Cc3ccc(F)cc3)c2cn1` [Example 27, 1-(4-fluorobenzyl)-N~5~- hydroxy-N~3~-(2-morpholin-4-ylethyl)-1H-pyrrolo[2,3-c]pyridine-3,5-dicarboxamide] the IC50 [1] was 76 nM and the EC50 [2, 3] was 38 nM.
